Experimental data: patent publication US20240150293A1, “SPIROCYCLOHEXANE DERIVATIVES, PHARMACEUTICAL COMPOSITIONS CONTAINING THEM AND THEIR USES AS ANTI-APOPTOTIC INHIBITORS” (LES LABORATOIRES SERVIER, priority 2021, published 2024)

Key:
[1] = molecular target: Cy5-labelled Mcl1 (amino acids 171-321) C286S protein (UniProtKB Q07820) (Homo sapiens (Human), UniProt Q07820, C286S); assay: Inhibition of Mcl-1 by the fluorescence quenching assay (Example A, Method B); type: binding
Summary of the method: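 Cy5-labelled Mcl1 171-321 C286S (1 nM) quenched by TQ5WS-labelled PUMA peptide (10, 20 or 400 nM); displacement raises fluorescence (Ex 620/Em 680 nm). Buffer 10 mM HEPES, 150 mM NaCl, 0.05% Tween 20, pH 7.4, 5% DMSO; 2 h at room temperature, 11-point curves, IC50 converted to Ki (cKi/eKi).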

[2] = tested on: AMO-1 multiple myeloma xenograft; assay: Quantification of the cleaved form of PARP in vivo, IV (Example E); parameters: species or system SCID mice; conditions: single dose
Method: (§1) The ability of the compounds of the invention to induce apoptosis was evaluated in vivo using the AMO-1 multiple myeloma xenograft.
(§2) 1×10^7 cells were subcutaneously grafted into immunosuppressed SCID mice. 12-14 days later, when tumors had reached the appropriate volume, mice (3 per group) were treated once with the various compounds (IV). Tumor samples were recovered 6 or 16 hours after dosing and lysed. Cleared lysates were used for cleaved PARP quantification (as a marker of apoptosis induction) using the Meso Scale Discovery (MSD) Elisa platform test. Results are expressed as the ratio between cleaved PARP in treated mice over control mice.

[3] = tested on: NCI-H929 cell lines; assay: In vitro cytotoxicity, CellTiter-Glo (CTG) assay (Example B, Method B); type: cell-based; conditions: Homo sapiens, NCI-H929, 48 h, NCI-H929 cells, 48 h incubation, read-out: C50
Summary of the method: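 NCI-H929 cells exposed to an 11-point compound series from 10 mM DMSO stocks (top final 30 μM) for 48 h at 37° C., 5% CO2. Viability measured as ATP by CellTiter-Glo luminescence; C50 is the concentration giving 50% cellular viability.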

[4] = tested on: AMO-1 multiple myeloma xenograft; assay: Quantification of the cleaved form of PARP in vivo, per os (Example C); parameters: species or system SCID mice; conditions: single dose per os, tumors recovered 16 hours after dosing
Method: as §1
as §2, with “(per os, HEC 1%/Tween 80 99:1).” for “(IV).”, “recovered” for “recovered 6 or”

[5] = tested on: AMO-1 multiple myeloma xenografts; assay: Anti-tumor activity in vivo (Example D); parameters: species or system SCID mice
Method: The anti-tumor activity of the compounds of the invention was evaluated using AMO-1 multiple myeloma xenografts.
1×10^7 cells were subcutaneously grafted into immunosuppressed SCID mice. 7-10 days later, when the tumor mass had reached an average volume of about 150 mm^3, mice were treated with the various compounds once a week for 2 weeks (per os, HEC 1%/Tween 80 99:1). Tumor size was measured three times per week using electronic calipers.
At the end of the treatment cycle (d9), tumor growth inhibition (TGI) was calculated using the formula: […]
wherein DTV (Delta Tumor Volume) at Dx was calculated as follows: […]
(Tumor Volume at Dx)−(Tumor Volume at Randomization).

Sequence of Cy5-labelled Mcl1 (amino acids 171-321) C286S protein (Q07820 171-321 C286S): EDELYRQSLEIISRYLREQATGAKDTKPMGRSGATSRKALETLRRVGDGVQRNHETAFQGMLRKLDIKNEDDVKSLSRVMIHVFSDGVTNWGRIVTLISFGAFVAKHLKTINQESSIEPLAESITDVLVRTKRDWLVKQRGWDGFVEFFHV

C[C@@H](COc1ccnc2c1[C@H](C)CCC2)C[C@H]1Cc2cc3c(cc2[C@]12CC[C@@](Nc1cccc(Cl)c1)(C(=O)O)CC2)OCO3 [Example 840, (1r,4S,6′S)-4-(3-chloroanilino)-6′-[(2R)-2-methyl-3-{[(5R)-5-methyl-5,6,7,8-tetrahydroquinolin-4-yl]oxy}propyl]-6′,7′-dihydro-2′H-spiro[cyclohexane-1,5′-indeno[5,6-d][1,3]dioxole]-4-carboxylic acid]
Ki [1]: 0.0554 nM
Cleaved PARP (fold to control) ([2]; 15 mpk IV, time-point 6 h): 127.8 fold to control
Cleaved PARP (fold to control) ([2]; 30 mpk IV, time-point 6 h): 166.3 fold to control
Cleaved PARP (fold to control) ([2]; 30 mpk IV, time-point 16 h): 138.2 fold to control
IC50 [3]: 30.5 nM
Cleaved PARP (fold to control) ([4]; 30 mpk): 19.2 fold to control
Cleaved PARP (fold to control) ([4]; 60 mpk): 29.4 fold to control
% TGI (d9) ([5]; 30 mpk per os once a week for 2 weeks): 83.8%
% TGI (d9) ([5]; 60 mpk per os once a week for 2 weeks): 119.8%
